Data reported in article PMC3433420 (PLoS ONE, 2012).
Residues, ends and D or L forms follow the SMILES beside them.

Key:
Experiment in all cases: In-house protein microarrays (with or without 5 mM DTT), protein named per line
Type in all cases: binding
SH2 and PTB domains [1] = target: T1, SH2 and PTB domains (Homo sapiens, UniProt O60880); conditions: protein SH2D1A
T1 construct: thioredoxin; made in house; host or cells: BL21(DE3)pLysS E. coli
T1 sequence (O60880 1-128): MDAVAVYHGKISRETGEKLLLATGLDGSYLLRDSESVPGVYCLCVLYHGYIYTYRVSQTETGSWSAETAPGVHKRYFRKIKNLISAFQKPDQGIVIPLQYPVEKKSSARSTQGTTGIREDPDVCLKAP
Procedure: (§1) 300 pL of purified recombinant proteins and a thioredoxin tag control were spotted at a concentration of ∼40 µM in duplicate onto aldehyde-coated microscope slides (Erie Scientific Company, Portsmouth, NH) using a Nano-Plotter (NP) 2.1/E noncontact microarrayer (GeSiM, Munich, Germany). 16 identical microarrays per slide were printed in a 2×8 (column by row) format with distances of 9 mm between individual arrays; each array consisted of a 14×14 configuration of spots 400 µm apart. Following printing at a constant humidity level of 50%, slides were desiccated overnight and stored at −80°C. For peptide probing, array slides were transferred to 96-well microplates (TeleChem International, Inc., Sunnyvale, CA) and sandwiched with silicone gaskets. Prior to peptide addition, aldehyde sites were quenched with buffer B (20 mM HEPES, 100 mM KCl, 0.1% Tween-20, 5 mM DTT, pH 7.8) containing 1% bovine serum albumin (BSA) (w/v) for one hour at room temperature; moderate agitation was applied in a plate shaker (IKA, Germany) to displace glycerol from the surface area of protein sample spots. […] The arrays were subsequently washed once with 300 µL of buffer B and once with 300 µL of ddH2O. Residual water was removed by centrifugation; slides were stored under desiccation in the dark until analysis.
(§2) Microarray slides were scanned at a resolution of 10 µm using a GenePix 4000B microarray scanner and analyzed using GenePix Pro v6.0 software (Molecular Devices, Sunnyvale, CA). To independently visualize protein spots irrespective of peptide binding, samples were printed simultaneously with 400 nM of Cyanine-5 (Cy5) labeled bovine serum albumin (BSA). […] Following spot layout identification via Cy5 labeled BSA, the mean fluorescence intensity of rhodamine for duplicate protein spots was quantified and normalized by subtracting the corresponding mean fluorescence intensity of thioredoxin. Normalized fluorescence values were then imported into MATLAB and KDs determined as previously described.

SH2 and PTB domains [2] = target: T2, SH2 and PTB domains (Homo sapiens, UniProt P16885)
T2 construct: thioredoxin; made in house; host or cells: BL21(DE3)pLysS E. coli
T2 sequence (P16885 1-1265): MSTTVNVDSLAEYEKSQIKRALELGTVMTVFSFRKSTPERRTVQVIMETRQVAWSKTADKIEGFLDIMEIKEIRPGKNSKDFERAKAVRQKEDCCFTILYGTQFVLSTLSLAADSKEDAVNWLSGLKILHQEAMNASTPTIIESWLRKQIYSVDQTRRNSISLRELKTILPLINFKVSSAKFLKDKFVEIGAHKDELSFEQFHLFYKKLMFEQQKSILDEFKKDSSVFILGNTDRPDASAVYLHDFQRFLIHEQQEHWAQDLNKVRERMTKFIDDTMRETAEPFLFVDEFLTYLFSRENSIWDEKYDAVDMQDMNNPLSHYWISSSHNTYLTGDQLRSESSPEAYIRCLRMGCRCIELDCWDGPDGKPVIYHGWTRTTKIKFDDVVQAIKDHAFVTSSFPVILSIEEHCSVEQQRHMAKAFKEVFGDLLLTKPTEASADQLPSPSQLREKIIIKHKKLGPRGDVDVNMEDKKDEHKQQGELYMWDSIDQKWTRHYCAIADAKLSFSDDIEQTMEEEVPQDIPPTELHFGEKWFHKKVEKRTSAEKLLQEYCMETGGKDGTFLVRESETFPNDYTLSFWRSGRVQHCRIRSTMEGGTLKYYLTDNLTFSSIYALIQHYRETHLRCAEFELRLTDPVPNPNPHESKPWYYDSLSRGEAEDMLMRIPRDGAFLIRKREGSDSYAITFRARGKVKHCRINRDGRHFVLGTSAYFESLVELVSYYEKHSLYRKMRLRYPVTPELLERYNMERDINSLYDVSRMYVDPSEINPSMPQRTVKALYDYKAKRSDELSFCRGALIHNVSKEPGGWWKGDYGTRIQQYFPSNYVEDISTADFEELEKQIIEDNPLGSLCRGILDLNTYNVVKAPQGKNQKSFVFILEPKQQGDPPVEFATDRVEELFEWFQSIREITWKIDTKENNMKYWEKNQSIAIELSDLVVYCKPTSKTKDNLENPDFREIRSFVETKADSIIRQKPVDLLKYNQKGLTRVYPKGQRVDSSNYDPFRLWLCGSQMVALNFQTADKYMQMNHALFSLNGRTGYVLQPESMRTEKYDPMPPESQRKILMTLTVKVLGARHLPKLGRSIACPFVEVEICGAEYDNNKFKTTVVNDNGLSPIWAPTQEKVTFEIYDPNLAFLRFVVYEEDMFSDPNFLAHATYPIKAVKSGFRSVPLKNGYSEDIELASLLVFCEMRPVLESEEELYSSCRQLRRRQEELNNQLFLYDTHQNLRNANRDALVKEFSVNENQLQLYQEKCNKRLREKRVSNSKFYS
Procedure: as §1, §2

SH2 and PTB domains [3] = target: T3, SH2 and PTB domains (Homo sapiens, UniProt P12931); conditions: protein SRC
T3 construct: thioredoxin; made in house; host or cells: BL21(DE3)pLysS E. coli
T3 sequence (P12931 whole entry, the tested form may be a part): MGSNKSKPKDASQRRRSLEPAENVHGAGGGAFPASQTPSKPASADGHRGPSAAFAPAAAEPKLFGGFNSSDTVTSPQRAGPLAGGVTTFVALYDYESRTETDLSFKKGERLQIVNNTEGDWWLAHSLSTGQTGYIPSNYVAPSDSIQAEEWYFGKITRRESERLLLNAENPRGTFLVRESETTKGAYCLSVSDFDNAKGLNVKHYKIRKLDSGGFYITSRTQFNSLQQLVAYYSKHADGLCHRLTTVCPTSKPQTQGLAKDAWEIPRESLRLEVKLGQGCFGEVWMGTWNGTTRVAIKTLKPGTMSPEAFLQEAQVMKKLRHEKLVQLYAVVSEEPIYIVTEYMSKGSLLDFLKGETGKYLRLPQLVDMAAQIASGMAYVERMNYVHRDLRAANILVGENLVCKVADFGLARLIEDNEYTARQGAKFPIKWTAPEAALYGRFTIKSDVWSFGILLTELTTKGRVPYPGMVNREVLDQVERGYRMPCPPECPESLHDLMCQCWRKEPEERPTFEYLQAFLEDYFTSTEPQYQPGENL
Procedure: as §1, §2

SH2 and PTB domains [4] = target: T4, SH2 and PTB domains (Homo sapiens, UniProt Q9BRG2); conditions: protein SH2D3A
T4 construct: thioredoxin; made in house; host or cells: BL21(DE3)pLysS E. coli
T4 sequence (Q9BRG2 whole entry, the tested form may be a part): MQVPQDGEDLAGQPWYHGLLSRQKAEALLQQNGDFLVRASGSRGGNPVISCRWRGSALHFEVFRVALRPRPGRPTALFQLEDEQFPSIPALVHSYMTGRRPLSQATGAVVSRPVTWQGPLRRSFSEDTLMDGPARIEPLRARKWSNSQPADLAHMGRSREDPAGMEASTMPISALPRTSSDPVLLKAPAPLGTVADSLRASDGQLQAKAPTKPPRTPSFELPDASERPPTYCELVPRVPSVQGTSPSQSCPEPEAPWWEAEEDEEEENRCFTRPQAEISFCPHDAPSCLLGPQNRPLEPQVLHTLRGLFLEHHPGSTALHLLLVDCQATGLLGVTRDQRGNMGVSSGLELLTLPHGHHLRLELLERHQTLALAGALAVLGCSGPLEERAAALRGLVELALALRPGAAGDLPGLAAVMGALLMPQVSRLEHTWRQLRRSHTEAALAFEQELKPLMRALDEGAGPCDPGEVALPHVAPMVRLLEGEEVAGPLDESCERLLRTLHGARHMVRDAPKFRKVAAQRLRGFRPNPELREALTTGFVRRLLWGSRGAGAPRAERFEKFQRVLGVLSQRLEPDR
Procedure: as §1, §2

SH2 and PTB domains [5] = target: T5, SH2 and PTB domains (Homo sapiens, UniProt O43639); conditions: protein NCK2
T5 construct: thioredoxin; made in house; host or cells: BL21(DE3)pLysS E. coli
T5 sequence (O43639 whole entry, the tested form may be a part): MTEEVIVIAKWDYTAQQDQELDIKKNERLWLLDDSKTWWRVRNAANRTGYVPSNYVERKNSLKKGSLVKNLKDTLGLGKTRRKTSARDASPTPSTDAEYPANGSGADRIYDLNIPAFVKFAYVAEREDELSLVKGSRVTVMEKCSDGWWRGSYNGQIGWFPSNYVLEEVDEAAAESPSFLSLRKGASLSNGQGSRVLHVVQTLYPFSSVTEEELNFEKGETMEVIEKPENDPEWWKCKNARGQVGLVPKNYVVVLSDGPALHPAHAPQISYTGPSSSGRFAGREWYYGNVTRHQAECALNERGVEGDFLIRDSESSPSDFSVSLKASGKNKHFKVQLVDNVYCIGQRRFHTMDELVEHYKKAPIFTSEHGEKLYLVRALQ
Procedure: as §1, §2

SH2 and PTB domains [6] = target: T6, SH2 and PTB domains (Homo sapiens, UniProt P07947); conditions: protein YES1
T6 construct: thioredoxin; made in house; host or cells: BL21(DE3)pLysS E. coli
T6 sequence (P07947 whole entry, the tested form may be a part): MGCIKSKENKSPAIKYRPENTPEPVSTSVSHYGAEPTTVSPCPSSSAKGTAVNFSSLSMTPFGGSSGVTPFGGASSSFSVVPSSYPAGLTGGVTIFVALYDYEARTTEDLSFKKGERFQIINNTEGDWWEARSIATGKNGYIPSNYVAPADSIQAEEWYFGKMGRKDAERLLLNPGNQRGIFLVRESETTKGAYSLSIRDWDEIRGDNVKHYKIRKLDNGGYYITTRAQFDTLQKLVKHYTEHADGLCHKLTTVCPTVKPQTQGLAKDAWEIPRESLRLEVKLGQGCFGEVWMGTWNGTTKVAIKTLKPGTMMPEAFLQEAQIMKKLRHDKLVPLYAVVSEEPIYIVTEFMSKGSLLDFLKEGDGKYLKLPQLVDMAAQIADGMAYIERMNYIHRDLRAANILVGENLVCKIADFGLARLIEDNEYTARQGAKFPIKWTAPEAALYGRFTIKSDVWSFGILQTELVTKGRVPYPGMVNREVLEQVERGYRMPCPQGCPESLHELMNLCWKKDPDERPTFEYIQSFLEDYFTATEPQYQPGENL
Procedure: as §1, §2

[7] = PM assay replicate # 39331, array fabrication # 39329
[8] = PM assay replicate # 39336, array fabrication # 39329
[9] = protein PLCG2-NC, PM assay replicate # 39336, array fabrication # 39329
[10] = PM assay replicate # 39337, array fabrication # 39329
[11] = protein PLCG2-NC, PM assay replicate # 39337, array fabrication # 39329
[12] = PM assay replicate # 39307, array fabrication # 39286
[13] = protein PLCG2-NC, PM assay replicate # 39352, array fabrication # 39336
[14] = PM assay replicate # 39352, array fabrication # 39336

Row | SMILES | Kd (SH2 and PTB domains [2]; [9]) | Kd (SH2 and PTB domains [2]; [11]) | Kd (SH2 and PTB domains [6]; [10]) | Kd (SH2 and PTB domains [1]; [12]) | Kd (SH2 and PTB domains [4]; [12]) | Kd (SH2 and PTB domains [5]; [12]) | Kd (SH2 and PTB domains [2]; [13]) | Kd (SH2 and PTB domains [3]; [12]) | Kd (SH2 and PTB domains [6]; [12]) | Kd (SH2 and PTB domains [6]; [14]) | also measured
1 | CC(C)C[C@H](NC(=O)[C@@H]1CCCN1)C(=O)N[C@@H](CCC(N)=O)C(=O)N[C@@H](CCCNC(=N)N)C(=O)N[C@@H](Cc1ccc(OP(=O)(O)O)cc1)C(=O)N[C@@H](CO)C(=O)N[C@@H](CCC(=O)O)C(=O)N[C@@H](CC(=O)O)C(=O)N1CCC[C@H]1C(=O)N[C@H](C(=O)N[C@H](C(=O)N1CCC[C@H]1C(=O)N[C@@H](CC(=O)O)C(=O)O)C(C)C)[C@@H](C)O [ErbB2 pY1112] (HELM PEPTIDE1{P.L.Q.R.[O=C([C@H](Cc1ccc(OP(=O)(O)O)cc1)N[*:1])[*:2]].S.E.D.P.T.V.P.D}$$$$V2.0) | 930 nM | – | – | – | – | – | – | – | – | – | Kd (SH2 and PTB domains [1]; [7]): 1720 nM; Kd (SH2 and PTB domains [1]; [8]): 9670 nM; Kd (SH2 and PTB domains [2]; protein PLCG2-NC, PM assay replicate # 39331, array fabrication # 39329): 5530 nM; Kd (SH2 and PTB domains [3]; [7]): 183210 nM
2 | CC(C)C[C@H](NC(=O)[C@@H]1CCCN1C(=O)[C@H](C)NC(=O)[C@@H](NC(=O)[C@H](Cc1ccc(OP(=O)(O)O)cc1)NC(=O)CNC(=O)[C@H](CC(=O)O)NC(=O)[C@@H](NC(=O)[C@@H](N)CCC(=O)O)[C@@H](C)O)C(C)C)C(=O)N[C@H](C(=O)N[C@@H](CS)C(=O)N[C@@H](CO)C(=O)N[C@@H](CC(=O)O)C(=O)O)[C@@H](C)O [ErbB2 pY1127] | 1600 nM | 580 nM | 65.1 nM | – | – | – | – | – | – | – | Kd (SH2 and PTB domains [4]; [8]): 150 nM; Kd (SH2 and PTB domains [4]; [10]): 1150 nM; Kd (SH2 and PTB domains [5]; [8]): 1560 nM; Kd (SH2 and PTB domains [5]; [10]): 460 nM; Kd (SH2 and PTB domains [2]; protein PLCG2-N, PM assay replicate # 39337, array fabrication # 39329): 4160 nM; Kd (SH2 and PTB domains [3]; [8]): 35 nM; Kd (SH2 and PTB domains [3]; [10]): 380 nM; Kd (SH2 and PTB domains [3]; PM assay replicate # 39603, array fabrication # 39392): 250 nM; Kd (SH2 and PTB domains [6]; [8]): 5.3 nM
3 | CCN(CC)c1ccc2c(-c3ccc(C(=O)N[C@@H](CC(N)=O)C(=O)NCC(=O)N4CCC[C@H]4C(=O)N4CCC[C@H]4C(=O)N[C@@H](CCCCN)C(=O)N[C@@H](C)C(=O)N[C@@H](CCC(=O)O)C(=O)N[C@@H](CC(=O)O)C(=O)N[C@@H](CCC(=O)O)C(=O)N[C@@H](Cc4ccc(OP(=O)(O)O)cc4)C(=O)N[C@H](C(=O)N[C@@H](CC(N)=O)C(=O)N[C@@H](CCC(=O)O)C(=O)N4CCC[C@H]4C(=O)N[C@@H](CC(C)C)C(=O)N[C@@H](Cc4ccc(O)cc4)C(=O)N[C@@H](CC(C)C)C(=O)N[C@@H](CC(=O)O)C(=O)O)C(C)C)cc3C(=O)[O-])c3ccc(=[N+](CC)CC)cc-3oc2c1 [ErbB4 1202 (18-mer)] (HELM PEPTIDE1{[CCN(CC)c1ccc2c(-c3ccc(C(=O)[*:2])cc3C(=O)[O-])c3ccc(=[N+](CC)CC)cc-3oc2c1].N.G.P.P.K.A.E.D.E.[O=C([C@H](Cc1ccc(OP(=O)(O)O)cc1)N[*:1])[*:2]].V.N.E.P.L.Y.L.D}$$$$V2.0) | – | 1530 nM | 1440 nM | 30900 nM | 1000 nM | 10060 nM | 610 nM | 400 nM | 350 nM | 420 nM | Kd (SH2 and PTB domains [2]; protein PLCG2-NC, PM assay replicate # 39351, array fabrication # 39336): 410 nM; Kd (SH2 and PTB domains [6]; PM assay replicate # 39351, array fabrication # 39336): 1610 nM
4 | CC[C@H](C)[C@H](NC(=O)[C@H](CC(N)=O)NC(=O)[C@H](CC(N)=O)NC(=O)[C@H](CCCCN)NC(=O)[C@H](CC(C)C)NC(=O)[C@H](Cc1ccc(OP(=O)(O)O)cc1)NC(=O)[C@H](CCC(=O)O)NC(=O)[C@H](C)NC(=O)[C@H](CCCCN)NC(=O)CNC(=O)[C@H](CC(C)C)NC(=O)[C@@H](NC(=O)[C@H](CC(N)=O)NC(=O)[C@H](C)NC(=O)[C@@H](N)Cc1ccccc1)[C@@H](C)O)C(=O)N[C@@H](CC(C)C)C(=O)N[C@@H](CO)C(=O)N[C@@H](CC(=O)O)C(=O)O [ErbB4 pY1221 (18-mer)] (HELM PEPTIDE1{F.A.N.T.L.G.K.A.E.[O=C([C@H](Cc1ccc(OP(=O)(O)O)cc1)N[*:1])[*:2]].L.K.N.N.I.L.S.D}$$$$V2.0) | – | – | – | 770 nM | 610 nM | 210 nM | 1250 nM | 440 nM | 820 nM | 1320 nM | Kd (SH2 and PTB domains [2]; protein PLCG2-NC, PM assay replicate # 39307, array fabrication # 39286): 1380 nM
